Results published in US20240270762A1, “PENICILLIN-BINDING PROTEIN INHIBITORS” (priority 2021, published 2024).
pEC50: −log10 of the molar value. Converted amounts (≈) assume the structure as drawn. Like-named read-outs stand apart in the source and are kept apart here.

How the values were obtained:
[1] = target: T1, PBP3 from Escherichia coli (K-12) (Escherichia coli, UniProt P0AD68); assay: Bocillin-FL fluorescence polarization competition binding, E. coli PBP3
T1 construct: made in house
Method in brief: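 Purified PBP was preincubated with inhibitor (E. coli PBP3 1.5 μM, 30 min; P. aeruginosa PBP3 0.75 μM, A. baumannii PBP3 0.2 μM and PBP1a 1 μM, 15 min), then Bocillin-FL (0.1 μM; 0.05 μM for PBP1a) added and FP read up to 60 min. EC50 = 50% loss of bound probe.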

N. gonorrhoeae WHO L = assay: Liquid broth MIC in Fastidious broth; conditions: Neisseria gonorrhoeae
N. gonorrhoeae WHO K = assay: Liquid broth MIC in Fastidious broth; conditions: Neisseria gonorrhoeae
Procedure: Liquid broth-based assays were used for antibacterial testing of PBP inhibitors in Neisseria gonorrhoeae. Briefly, cryo-preserved bacterial cultures of clinical strains were streaked for isolation on Chocolate Agar (72 g/L (2×) GC Agar Base (BD #228950) and 2% (2×) Hemoglobin was autoclaved at 121° C. for 20 minutes to sterilize. Once cooled to ˜50° C. the 2×GC Agar Base and 2× Hemoglobin solutions are combined and 1% IsoVitaleX Enrichment (BD #211876) was added to the solution). Strains were incubated at 36° C. and 5% CO2 to allow growth of colonies, 24 hours before inoculum preparation. 2-fold serial dilutions of test compounds were conducted in a 96 well plate with a final volume of 75 μL per well at 2-fold the final desired concentration in Fastidious broth (Remel #R07664). For preparation of assay inoculum, a direct suspension was prepared by aseptically swabbing 10-15 colonies from agar plates into culture tubes containing 2 mL of fresh sterile saline. After the dilution plates were set up, direct suspensions were then diluted in a cuvette containing sterile saline and the optical density was measured at 600 nm. Inocula were diluted such that 75 μL of this culture in Fastidious broth results in a starting bacterial concentration of 5×10^5 CFU/mL when added to the dilution plates. The plates were incubated for ˜24 hours at 36° C. and 5% CO2.

N. gonorrhoeae WHO Q = assay: Liquid broth MIC in Fastidious broth; conditions: Neisseria gonorrhoeae
[2] = test system: B. thailandensis ATCC 700388; assay: microbe, parasite or virus in culture; format: cell-based; conditions: Burkholderia thailandensis, ATCC700388, read-out: Minimum inhibitory concentration (MIC), B. thailandensis ATCC 700388
P. aeruginosa CDC-0054 = assay: microbe, parasite or virus in culture; format: cell-based; conditions: Pseudomonas aeruginosa, CDC0054, read-out: Minimum inhibitory concentration, P. aeruginosa CDC-0054
A. baumannii CDC-0045 = assay: microbe, parasite or virus in culture; format: cell-based; conditions: Acinetobacter baumannii, CDC0045, read-out: MIC, A. baumannii CDC-0045
[3] = test system: P. aeruginosa (ΔmexAB-oprM); assay: Broth microdilution MIC in iron-depleted CAMHB (IDM); format: cell-based; conditions: Pseudomonas aeruginosa; iron-depleted CAMHB (IDM); […]; read-out: Minimum inhibitory concentration, P. aeruginosa ΔmexAB-oprM
P. aeruginosa CDC-0090 = assay: microbe, parasite or virus in culture; format: cell-based; conditions: Pseudomonas aeruginosa, CDC0090, read-out: Minimum inhibitory concentration, P. aeruginosa CDC-0090
[4] = test system: B. humptydooensis ATCC BAA-2767; assay: microbe, parasite or virus in culture; format: cell-based; conditions: Burkholderia humptydooensis, ATCCBAA2767, read-out: Minimum inhibitory concentration (MIC), B. humptydooensis ATCC BAA-2767
[5] = read-out: Minimum Inhibitory Concentration (MIC), N. gonorrhoeae WHO L
[6] = read-out: Minimum Inhibitory Concentration (MIC), N. gonorrhoeae WHO K
[7] = read-out: Minimum Inhibitory Concentration (MIC), N. gonorrhoeae WHO Q
[8] = read-out: Minimum Inhibitory Concentration, WHO L
[9] = read-out: Minimum Inhibitory Concentration, WHO K
[10] = read-out: Minimum Inhibitory Concentration, WHO Q

T1 sequence (P0AD68 1-577): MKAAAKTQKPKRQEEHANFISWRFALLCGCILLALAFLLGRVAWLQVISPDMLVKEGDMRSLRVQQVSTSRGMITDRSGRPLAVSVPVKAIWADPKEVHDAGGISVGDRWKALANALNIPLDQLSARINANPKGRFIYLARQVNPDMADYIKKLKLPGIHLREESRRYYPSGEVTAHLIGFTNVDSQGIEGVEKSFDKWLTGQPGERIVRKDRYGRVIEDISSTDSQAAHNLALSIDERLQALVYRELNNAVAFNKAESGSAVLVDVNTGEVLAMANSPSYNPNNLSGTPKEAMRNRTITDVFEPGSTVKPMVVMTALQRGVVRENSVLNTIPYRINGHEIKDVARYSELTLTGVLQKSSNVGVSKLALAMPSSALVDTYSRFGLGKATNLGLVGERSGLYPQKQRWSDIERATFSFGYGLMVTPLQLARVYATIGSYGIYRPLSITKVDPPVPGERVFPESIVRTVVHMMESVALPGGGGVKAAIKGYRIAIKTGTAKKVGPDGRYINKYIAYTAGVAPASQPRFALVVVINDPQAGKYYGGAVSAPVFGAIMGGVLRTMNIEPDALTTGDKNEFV

Row | SMILES | pEC50 [1] | MIC (N. gonorrhoeae WHO L; [5]) | MIC (N. gonorrhoeae WHO K; [6]) | MIC (N. gonorrhoeae WHO Q; [7]) | MIC [2] | MIC (P. aeruginosa CDC-0054) | MIC (A. baumannii CDC-0045) | MIC [3] | MIC (P. aeruginosa CDC-0090) | MIC [4] | MIC (N. gonorrhoeae WHO L; [8]) | MIC (N. gonorrhoeae WHO K; [9]) | MIC (N. gonorrhoeae WHO Q; [10])
1 | O=C(O)c1cccc2c1OB(O)[C@@H](NC(=O)[C@@H](NC(=O)c1cnc3n(c1=O)CCS3)c1ccc(P(=O)(O)O)cc1)C2 (single isomer, unassigned) [Example 196] | < 3.60 | 16 to 32 µg/mL (≈ 26.7 to 53.3 µM) | 16 to 32 µg/mL (≈ 26.7 to 53.3 µM) | 16 to 32 µg/mL (≈ 26.7 to 53.3 µM) | – | – | – | – | – | – | – | – | –
2 | O=C(O)c1cccc2c1OB(O)[C@@H](NC(=O)[C@H](NC(=O)c1cnc3n(c1=O)CCS3)c1ccc(P(=O)(O)O)cc1)C2 (single isomer, unassigned) [Example 197] | 4.30 to 5.00 | 16 to 32 µg/mL (≈ 26.7 to 53.3 µM) | 16 to 32 µg/mL (≈ 26.7 to 53.3 µM) | 16 to 32 µg/mL (≈ 26.7 to 53.3 µM) | – | – | – | – | – | – | – | – | –
3 | CCN1CCN(C(=O)NC(C(=O)N[C@H]2Cc3cccc(C(=O)O)c3OB2O)c2ccc(P(=O)(O)O)c(F)c2O)C(=O)C1=O (stereo partly drawn) [Example 198, (3R)-3-(2-(4-ethyl-2,3-dioxopiperazine-1-carboxamido)-2-(3-fluoro-2-hydroxy-4-phosphonophenyl)acetamido)-2-hydroxy-3,4-dihydro-2H-benzo[e][1,2]oxaborinine-8-carboxylic acid] | 4.30 to 5.00 | 1 to 2 µg/mL (≈ 1.61 to 3.21 µM) | 4 to 8 µg/mL (≈ 6.43 to 12.9 µM) | 1 to 2 µg/mL (≈ 1.61 to 3.21 µM) | – | – | – | – | – | – | – | – | –
4 | CN(CCN1CCN(C(=O)N[C@@H](C(=O)N[C@H]2Cc3ccc(F)c(C(=O)O)c3OB2O)c2cc(F)c(O)c(O)c2Cl)C(=O)C1=O)Cc1nccs1 [Example 200, (R)-3-((R)-2-(2-chloro-5-fluoro-3,4-dihydroxyphenyl)-2-(4-(2-(methyl(thiazol-2-ylmethyl)amino)ethyl)-2,3-dioxopiperazine-1-carboxamido)acetamido)-7-fluoro-2-hydroxy-3,4-dihydro-2H-benzo[e][1,2]oxaborinine-8-carboxylic acid] | 4.30 to 5.00 | > 64 µg/mL | 16 to 32 µg/mL (≈ 21.7 to 43.4 µM) | 16 to 32 µg/mL (≈ 21.7 to 43.4 µM) | < 1 µg/mL | < 1 µg/mL | < 1 µg/mL | < 1 µg/mL | < 1 µg/mL | < 1 µg/mL | – | – | –
5 | CN(CCN1CCN(C(=O)N[C@@H](C(=O)N[C@H]2Cc3ccc(F)c(C(=O)O)c3OB2O)c2cc(F)c(O)c(O)c2Cl)C(=O)C1=O)Cc1cccnc1 [Example 201, (R)-3-((R)-2-(2-chloro-5-fluoro-3,4-dihydroxyphenyl)-2-(4-(2-(methyl(pyridin-3-ylmethyl)amino)ethyl)-2,3-dioxopiperazine-1-carboxamido)acetamido)-7-fluoro-2-hydroxy-3,4-dihydro-2H-benzo[e][1,2]oxaborinine-8-carboxylic acid] | > 5.00 | > 64 µg/mL | 16 to 32 µg/mL (≈ 21.9 to 43.8 µM) | 16 to 32 µg/mL (≈ 21.9 to 43.8 µM) | < 1 µg/mL | < 1 µg/mL | < 1 µg/mL | < 1 µg/mL | < 1 µg/mL | < 1 µg/mL | – | – | –
6 | O=C(NCCCN1CCN(C(=O)NC(C(=O)N[C@H]2Cc3ccc(F)c(C(=O)O)c3OB2O)c2cc(F)c(O)c(O)c2Cl)C(=O)C1=O)c1ccccc1 (stereo partly drawn) [Example 202, (3R)-3-(2-(4-(3-benzamidopropyl)-2,3-dioxopiperazine-1-carboxamido)-2-(2-chloro-5-fluoro-3,4-dihydroxyphenyl)acetamido)-7-fluoro-2-hydroxy-3,4-dihydro-2H-benzo[e][1,2]oxaborinine-8-carboxylic acid] | > 5.00 | > 64 µg/mL | > 64 µg/mL | > 64 µg/mL | 8 to 16 µg/mL (≈ 10.8 to 21.5 µM) | < 1 µg/mL | < 1 µg/mL | < 1 µg/mL | 2 to 4 µg/mL (≈ 2.69 to 5.38 µM) | < 1 µg/mL | – | – | –
7 | O=C(NCCCN1CCN(C(=O)NC(C(=O)N[C@H]2Cc3ccc(F)c(C(=O)O)c3OB2O)c2cc(F)c(O)c(O)c2Cl)C(=O)C1=O)c1ccc(O)cc1 (stereo partly drawn) [Example 203, (3R)-3-(2-(2-chloro-5-fluoro-3,4-dihydroxyphenyl)-2-(4-(3-(4-hydroxybenzamido)propyl)-2,3-dioxopiperazine-1-carboxamido)acetamido)-7-fluoro-2-hydroxy-3,4-dihydro-2H-benzo[e][1,2]oxaborinine-8-carboxylic acid] | > 5.00 | 16 to 32 µg/mL (≈ 21.1 to 42.1 µM) | > 64 µg/mL | 16 to 32 µg/mL (≈ 21.1 to 42.1 µM) | < 1 µg/mL | < 1 µg/mL | < 1 µg/mL | < 1 µg/mL | < 1 µg/mL | < 1 µg/mL | – | – | –
8 | O=C(NCCCN1CCN(C(=O)NC(C(=O)N[C@H]2Cc3ccc(F)c(C(=O)O)c3OB2O)c2cc(F)c(O)c(O)c2Cl)C(=O)C1=O)c1cccc(O)c1 (stereo partly drawn) [Example 204, (3R)-3-(2-(2-chloro-5-fluoro-3,4-dihydroxyphenyl)-2-(4-(3-(3-hydroxybenzamido)propyl)-2,3-dioxopiperazine-1-carboxamido)acetamido)-7-fluoro-2-hydroxy-3,4-dihydro-2H-benzo[e][1,2]oxaborinine-8-carboxylic acid] | > 5.00 | > 64 µg/mL | > 64 µg/mL | > 64 µg/mL | 2 to 4 µg/mL (≈ 2.63 to 5.26 µM) | < 1 µg/mL | < 1 µg/mL | < 1 µg/mL | < 1 µg/mL | < 1 µg/mL | – | – | –
9 | O=C(O)c1c(F)ccc2c1OB(O)[C@@H](NC(=O)[C@H](NC(=O)N1CCN(CCNC(=O)[C@@H]3CCCN3)C(=O)C1=O)c1cc(F)c(O)c(O)c1Cl)C2 [Example 229, (R)-3-((R)-2-(2-chloro-5-fluoro-3,4-dihydroxyphenyl)-2-(2,3-dioxo-4-(2-((S)-pyrrolidine-2-carboxamido)ethyl)piperazine-1-carboxamido)acetamido)-7-fluoro-2-hydroxy-3,4-dihydro-2H-benzo[e][1,2]oxaborinine-8-carboxylic acid] | 4.30 to 5.00 | > 64 µg/mL | 16 to 32 µg/mL (≈ 22.1 to 44.3 µM) | 16 to 32 µg/mL (≈ 22.1 to 44.3 µM) | < 1 µg/mL | 2 to 4 µg/mL (≈ 2.77 to 5.53 µM) | < 1 µg/mL | < 1 µg/mL | 2 to 4 µg/mL (≈ 2.77 to 5.53 µM) | – | – | – | –
10 | O=C(CN1CCN(C(=O)NC(C(=O)N[C@H]2Cc3ccc(F)c(C(=O)O)c3OB2O)c2cc(F)c(O)c(O)c2Cl)C(=O)C1=O)NCc1ccc(O)cc1 (stereo partly drawn) [Example 236, (3R)-3-(2-(2-chloro-5-fluoro-3,4-dihydroxyphenyl)-2-(4-(2-((4-hydroxybenzyl)amino)-2-oxoethyl)-2,3-dioxopiperazine-1-carboxamido)acetamido)-7-fluoro-2-hydroxy-3,4-dihydro-2H-benzo[e][1,2]oxaborinine-8-carboxylic acid] | > 5.00 | – | – | – | 8 to 16 µg/mL (≈ 10.7 to 21.5 µM) | – | 8 to 16 µg/mL (≈ 10.7 to 21.5 µM) | – | – | 2 to 4 µg/mL (≈ 2.68 to 5.36 µM) | – | – | –
11 | O=C(CN1CCN(C(=O)NC(C(=O)N[C@H]2Cc3ccc(F)c(C(=O)O)c3OB2O)c2cc(F)c(O)c(O)c2Cl)C(=O)C1=O)NCc1ccccc1 (stereo partly drawn) [Example 238] | > 5.00 | > 64 µg/mL | > 64 µg/mL | > 64 µg/mL | 8 to 16 µg/mL (≈ 11 to 21.9 µM) | 2 to 4 µg/mL (≈ 2.74 to 5.48 µM) | – | < 1 µg/mL | 2 to 4 µg/mL (≈ 2.74 to 5.48 µM) | > 128 µg/mL | – | – | –
12 | O=C(NCCCN1CCN(C(=O)N[C@@H](C(=O)N[C@H]2Cc3ccc(F)c(C(=O)O)c3OB2O)c2cc(F)c(O)c(O)c2Cl)C1=O)c1ccccc1 [Example 253, (R)-3-((R)-2-(3-(3-benzamidopropyl)-2-oxoimidazolidine-1-carboxamido)-2-(2-chloro-5-fluoro-3,4-dihydroxyphenyl)acetamido)-7-fluoro-2-hydroxy-3,4-dihydro-2H-benzo[e][1,2]oxaborinine-8-carboxylic acid] | > 5.00 | – | – | – | 2 to 4 µg/mL (≈ 2.79 to 5.59 µM) | 8 to 16 µg/mL (≈ 11.2 to 22.4 µM) | < 1 µg/mL | < 1 µg/mL | 2 to 4 µg/mL (≈ 2.79 to 5.59 µM) | – | > 64 µg/mL | > 64 µg/mL | 16 to 32 µg/mL (≈ 22.4 to 44.7 µM)
13 | O=C(NCCS(=O)(=O)N1CCN(C(=O)NC(C(=O)N[C@H]2Cc3ccc(F)c(C(=O)O)c3OB2O)c2cc(F)c(O)c(O)c2Cl)C1=O)c1ccccc1 (stereo partly drawn) [Example 260, (3R)-3-(2-(3-((2-benzamidoethyl)sulfonyl)-2-oxoimidazolidine-1-carboxamido)-2-(2-chloro-5-fluoro-3,4-dihydroxyphenyl)acetamido)-7-fluoro-2-hydroxy-3,4-dihydro-2H-benzo[e][1,2]oxaborinine-8-carboxylic acid] | > 5.00 | – | – | – | > 128 µg/mL | 2 to 4 µg/mL (≈ 2.61 to 5.22 µM) | < 1 µg/mL | < 1 µg/mL | 2 to 4 µg/mL (≈ 2.61 to 5.22 µM) | – | > 64 µg/mL | > 64 µg/mL | 16 to 32 µg/mL (≈ 20.9 to 41.8 µM)
